Target: USP30 (Homo sapiens (Human), UniProt Q70CQ3)
Experiment: USP30 Biochemical IC50 Assay
Conditions: fluorescence polarisation, TAMRA labelled peptide linked to ubiquitin; 30 min pre-incubation, read after 2 h; read-out: IC50 range
Protocol: Reactions were performed in duplicate in black 384 well plates (small volume, Greiner 784076) in a final reaction volume of 21 μl. Either 1 μl of 50% DMSO or diluted compound was added to the plate. […] Enzyme and compound were incubated for 30 min at room temp. Reactions were initiated by the addition of 50 nM of TAMRA labelled peptide linked to ubiquitin via an iso-peptide bond as fluorescence polarisation substrate. Reactions were read immediately after addition of substrate and following a 2 h incubation at room temperature. Readings were performed on a Pherastar Plus (BMG Labtech). λ Excitation 540 nm; λ Emission 590 nm.

Chain of USP30 (Q70CQ3 57-517): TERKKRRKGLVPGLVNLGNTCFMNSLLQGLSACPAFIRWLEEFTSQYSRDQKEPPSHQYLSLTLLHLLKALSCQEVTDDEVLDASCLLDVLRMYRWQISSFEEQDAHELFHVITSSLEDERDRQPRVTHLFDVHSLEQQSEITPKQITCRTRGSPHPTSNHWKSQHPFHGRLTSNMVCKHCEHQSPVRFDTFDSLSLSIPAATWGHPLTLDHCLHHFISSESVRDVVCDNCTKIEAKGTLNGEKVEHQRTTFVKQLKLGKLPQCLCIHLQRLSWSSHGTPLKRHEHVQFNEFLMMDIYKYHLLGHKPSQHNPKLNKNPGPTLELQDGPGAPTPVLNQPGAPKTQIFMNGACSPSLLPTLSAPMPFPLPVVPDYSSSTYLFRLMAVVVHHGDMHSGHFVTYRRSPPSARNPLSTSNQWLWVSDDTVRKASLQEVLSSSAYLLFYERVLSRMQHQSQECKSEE

| IC50 [µM] | SMILES |
| --- | --- |
| 0.1 to 1 | C[C@@H]1CN(C#N)C[C@H]1c1cc(-c2cccc(-c3ccccc3)c2)n[nH]1 (relative stereo) [Example 19, Trans-3-(3-([1,1′-biphenyl]-3-yl)-1H-pyrazol-5-yl)-4-methylpyrrolidine-1-carbonitrile] |
| 0.1 to 1 | CC[C@@H]1CN(C#N)C[C@H]1c1cc(-c2cccc(-c3ccccc3)c2)n[nH]1 (relative stereo) [Example 43, trans-3-(3-([1,1′-biphenyl]-3-yl)-1H-pyrazol-5-yl)-4-ethylpyrrolidine-1-carbonitrile] |
| 0.1 to 1 | N#CN1C[C@@H](c2cc(-c3cccc(-c4ccccc4)c3)n[nH]2)[C@H](C2CC2)C1 (relative stereo) [Example 46, Trans-3-(3-([1,1′-biphenyl]-3-yl)-1H-pyrazol-5-yl)-4-cyclopropylpyrrolidine-1-carbonitrile] |
| 1 to 10 | C[C@@H]1CN(C#N)C[C@H]1c1cc(-c2ccncc2)n[nH]1 (relative stereo) [Example 48, Trans-3-methyl-4-(3-(pyridin-4-yl)-1H-pyrazol-5-yl)pyrrolidine-1-carbonitrile] |
| 1 to 10 | C[C@@H]1CN(C#N)C[C@H]1c1cc(-c2ccccc2)n[nH]1 (relative stereo) [Example 49, Trans-3-methyl-4-(3-phenyl-1H-pyrazol-5-yl)pyrrolidine-1-carbonitrile] |
| 1 to 10 | C[C@@H]1CN(C#N)C[C@H]1c1nc(-c2ccccc2)n[nH]1 (relative stereo) [Example 113, Trans 3-methyl-4-(3-phenyl-1H-1,2,4-triazol-5-yl)pyrrolidine-1-carbonitrile] |
| < 0.1 | C[C@@H]1CN(C#N)C[C@H]1c1n[nH]c(-c2cccc(-c3ccccc3)c2)n1 (relative stereo) [Example 114, Trans-3-(3-([1,1′-biphenyl]-3-yl)-1H-1,2,4-triazol-5-yl)-4-methylpyrrolidine-1-carbonitrile] |
| 0.1 to 1 | N#CN1CCC(c2[nH]nc(-c3cccc(-c4ccccc4)c3)c2F)C1 (single isomer, unassigned) [Example 16, 3-(3-([1,1′-Biphenyl]-3-yl)-4-fluoro-1H-pyrazol-5-yl)pyrrolidine-1-carbonitrile] |
| < 0.1 | N#CN1CCC(c2[nH]nc(-c3cccc(-c4ccccc4)c3)c2F)C1 (single isomer, unassigned) [Example 17, 3-(3-([1,1′-Biphenyl]-3-yl)-4-fluoro-1H-pyrazol-5-yl)pyrrolidine-1-carbonitrile] |
| 0.1 to 1 | N#CN1CCC(c2cc(-c3cccc(-c4ccccc4)n3)[nH]n2)C1 (single isomer, unassigned) [Example 41, 3-(5-(6-Phenylpyridin-2-yl)-1H-pyrazol-3-yl)pyrrolidine-1-carbonitrile] |
| 0.1 to 1 | N#CN1CCC(c2cc(-c3cccc(-c4ccccc4)n3)[nH]n2)C1 (single isomer, unassigned) [Example 42, 3-(5-(6-Phenylpyridin-2-yl)-1H-pyrazol-3-yl)pyrrolidine-1-carbonitrile] |
| 1 to 10 | CC[C@@H]1CN(C#N)C[C@H]1c1cc(-c2cccc(-c3ccccc3)c2)n[nH]1 (single isomer, unassigned) [Example 44, Trans-3-(3-([1,1′-biphenyl]-3-yl)-1H-pyrazol-5-yl)-4-ethylpyrrolidine-1-carbonitrile] |
| 0.1 to 1 | CC[C@@H]1CN(C#N)C[C@H]1c1cc(-c2cccc(-c3ccccc3)c2)n[nH]1 (single isomer, unassigned) [Example 45, Trans-3-(3-([1,1′-biphenyl]-3-yl)-1H-pyrazol-5-yl)-4-ethylpyrrolidine-1-carbonitrile] |
| 0.1 to 1 | N#CN1CCC(c2nc3cc(-c4ccncc4)cnc3[nH]2)C1 (single isomer, unassigned) [Example 81, 3-(6-(Pyridin-4-yl)-3H-imidazo[4,5-b]pyridin-2-yl)pyrrolidine-1-carbonitrile] |
| 1 to 10 | N#CN1CCC(c2nc3cc(-c4ccncc4)cnc3[nH]2)C1 (single isomer, unassigned) [Example 82, 3-(6-(Pyridin-4-yl)-3H-imidazo[4,5-b]pyridin-2-yl)pyrrolidine-1-carbonitrile] |
| 0.1 to 1 | N#Cc1ccc(-c2cnc3[nH]c(C4CCN(C#N)C4)nc3c2)cc1 (single isomer, unassigned) [Example 90, 3-(6-(4-Cyanophenyl)-3H-imidazo[4,5-b]pyridin-2-yl)pyrrolidine-1-carbonitrile] |
| 0.1 to 1 | N#Cc1ccc(-c2cnc3[nH]c(C4CCN(C#N)C4)nc3c2)cc1 (single isomer, unassigned) [Example 91, 3-(6-(4-Cyanophenyl)-3H-imidazo[4,5-b]pyridin-2-yl)pyrrolidine-1-carbonitrile] |
| 1 to 10 | CNC(=O)c1cccc(-c2cnc3[nH]c(C4CCN(C#N)C4)nc3c2)c1 (single isomer, unassigned) [Example 92, 3-(2-(1-Cyanopyrrolidin-3-yl)-3H-imidazo[4,5-b]pyridin-6-yl)-N-methylbenzamide] |
| 0.1 to 1 | CNC(=O)c1cccc(-c2cnc3[nH]c(C4CCN(C#N)C4)nc3c2)c1 (single isomer, unassigned) [Example 93, 3-(2-(1-Cyanopyrrolidin-3-yl)-3H-imidazo[4,5-b]pyridin-6-yl)-N-methylbenzamide] |

| IC50 [µM] | SMILES |
| --- | --- |
| 0.1 to 1 | C[C@H]1CN(C#N)C[C@@H]1c1nc2cc(-c3ccccc3)cnc2[nH]1 (single isomer, unassigned) [Example 102, Trans-3-methyl-4-(6-phenyl-3H-imidazo[4,5-b]pyridin-2-yl)pyrrolidine-1-carbonitrile] |
| 0.1 to 1 | C[C@H]1CN(C#N)C[C@@H]1c1nc2cc(-c3ccccc3)cnc2[nH]1 (single isomer, unassigned) [Example 103, Trans-3-methyl-4-(6-phenyl-3H-imidazo[4,5-b]pyridin-2-yl)pyrrolidine-1-carbonitrile] |
| 0.1 to 1 | C[C@H]1CN(C#N)C[C@@H]1c1nc2cc(-c3ccccc3)ccc2[nH]1 (single isomer, unassigned) [Example 104, Trans-3-methyl-4-(5-phenyl-1H-benzo[d]imidazol-2-yl)pyrrolidine-1-carbonitrile] |
| 0.1 to 1 | C[C@@H]1CN(C#N)C[C@H]1c1n[nH]c(-c2cccc(-c3ccccc3)c2)n1 (single isomer, unassigned) [Example 116, Trans-3-(3-([1,1′-biphenyl]-3-yl)-1H-1,2,4-triazol-5-yl)-4-methylpyrrolidine-1-carbonitrile] |
| < 0.1 | N#CN1CCC(c2cc(-c3cccc(-c4ccccc4)c3)no2)C1 (single isomer, unassigned) [Example 118, 3-(3-([1,1′-Biphenyl]-3-yl)isoxazol-5-yl)pyrrolidine-1-carbonitrile] |
| < 0.1 | N#CN1CCC(c2cc(-c3cccc(-c4ccccc4)c3)no2)C1 (single isomer, unassigned) [Example 119, 3-(3-([1,1′-Biphenyl]-3-yl)isoxazol-5-yl)pyrrolidine-1-carbonitrile] |
| 1 to 10 | N#Cc1ccc2ccc(-c3nc([C@@H]4CCCN4C#N)no3)cc2n1 (stereo in doubt) [Example 179, 7-(3-(1-Cyanopyrrolidin-2-yl)-1,2,4-oxadiazol-5-yl)quinoline-2-carbonitrile] |
| 0.1 to 1 | N#Cc1cccc(-c2cc(C3CCN(C#N)C3)[nH]n2)c1 (centres unmarked) [Example 1, 3-(3-(3-Cyanophenyl)-1H-pyrazol-5-yl)pyrrolidine-1-carbonitrile] |
| 1 to 10 | N#Cc1ccc(-c2cc(C3CCN(C#N)C3)[nH]n2)cc1 (centres unmarked) [Example 2, 3-(3-(4-Cyanophenyl)-1H-pyrazol-5-yl)pyrrolidine-1-carbonitrile] |
| 1 to 10 | CNC(=O)c1ccc(-c2cc(C3CCN(C#N)C3)[nH]n2)cn1 (centres unmarked) [Example 3, 5-(5-(1-Cyanopyrrolidin-3-yl)-1H-pyrazol-3-yl)-N-methylpicolinamide] |
| 1 to 10 | N#CN1CCC(c2cc(-c3ccc(C(N)=O)cc3)n[nH]2)C1 (centres unmarked) [Example 4, 4-(5-(1-Cyanopyrrolidin-3-yl)-1H-pyrazol-3-yl)benzamide] |
| 0.1 to 1 | CN1CCN(c2ccc(-c3cc(C4CCN(C#N)C4)[nH]n3)cc2)CC1 (centres unmarked) [Example 5, 3-(3-(4-(4-Methylpiperazin-1-yl)phenyl)-1H-pyrazol-5-yl)pyrrolidine-1-carbonitrile] |
| 1 to 10 | N#CN1CCC(c2cc(-c3cccc(C(N)=O)c3)n[nH]2)C1 (centres unmarked) [Example 6, 3-(5-(1-Cyanopyrrolidin-3-yl)-1H-pyrazol-3-yl)benzamide] |
| 1 to 10 | CC(=O)Nc1cccc(-c2cc(C3CCN(C#N)C3)[nH]n2)c1 (centres unmarked) [Example 7, N-(3-(5-(1-Cyanopyrrolidin-3-yl)-1H-pyrazol-3-yl)phenyl)acetamide] |
| 0.1 to 1 | CN(C)C(=O)c1cccc(-c2cc(C3CCN(C#N)C3)[nH]n2)c1 (centres unmarked) [Example 8, 3-(5-(1-Cyanopyrrolidin-3-yl)-1H-pyrazol-3-yl)-N,N-dimethylbenzamide] |
| 1 to 10 | CC(=O)Nc1ccc(-c2cc(C3CCN(C#N)C3)[nH]n2)cc1 (centres unmarked) [Example 9, N-(4-(5-(1-Cyanopyrrolidin-3-yl)-1H-pyrazol-3-yl)phenyl)acetamide] |
| 1 to 10 | Cc1cc(-c2cc(C3CCN(C#N)C3)[nH]n2)ccn1 (centres unmarked) [Example 11, 3-(3-(2-Methylpyridin-4-yl)-1H-pyrazol-5-yl)pyrrolidine-1-carbonitrile] |
| 0.1 to 1 | N#CN1CCC(c2cc(-c3cccc(N4CCCCC4)c3)n[nH]2)C1 (centres unmarked) [Example 12, 3-(3-(3-(Piperidin-1-yl)phenyl)-1H-pyrazol-5-yl)pyrrolidine-1-carbonitrile] |
| 0.1 to 1 | N#CN1CCC(c2cc(-c3cccc(-c4ccccc4)c3)n[nH]2)C1 (centres unmarked) [Example 14, 3-(3-([1,1′-Biphenyl]-3-yl)-1H-pyrazol-5-yl)pyrrolidine-1-carbonitrile] |
